Laboratory results published in ChEMBL document CHEMBL1933022, “Synthetic studies of bi-fluorescence-labeled maltooligosaccharides as substrates for α-amylase on the basis of fluorescence resonance energy transfer (FRET)” (Bioorg Med Chem, 2012).
Activity calls are given as the source filed them. No cut-off for these calls is given here.

Molecular target: T1, Alpha-amylase 1A (Homo sapiens) (UniProt P0DUB6)
T1 sequence (whole entry): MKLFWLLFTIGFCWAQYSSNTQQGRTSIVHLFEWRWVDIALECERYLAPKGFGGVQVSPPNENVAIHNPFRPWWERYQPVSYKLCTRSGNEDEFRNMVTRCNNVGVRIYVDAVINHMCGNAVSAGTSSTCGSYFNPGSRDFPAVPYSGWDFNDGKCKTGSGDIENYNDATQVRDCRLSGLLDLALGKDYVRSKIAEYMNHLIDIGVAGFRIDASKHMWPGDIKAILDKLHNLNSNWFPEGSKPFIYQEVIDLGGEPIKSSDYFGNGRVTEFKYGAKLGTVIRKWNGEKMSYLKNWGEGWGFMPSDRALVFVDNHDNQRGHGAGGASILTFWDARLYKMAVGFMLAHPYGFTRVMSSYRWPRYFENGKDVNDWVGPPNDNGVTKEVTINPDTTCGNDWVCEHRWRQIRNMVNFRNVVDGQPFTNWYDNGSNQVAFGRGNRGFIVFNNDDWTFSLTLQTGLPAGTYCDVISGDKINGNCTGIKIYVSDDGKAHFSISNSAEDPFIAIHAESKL
Assay: Activity of human saliva alpha-amylase assessed as decrease in fluorescence intensity measured for every 3 mins for 30 mins by FRET analysis

Structure (SMILES) | Activity
CN(C)c1cccc2c(S(=O)(=O)NCCSCCCCCS[C@@H]3O[C@H](CO)[C@@H](O[C@H]4O[C@H](CO)[C@@H](O[C@H]5O[C@H](CO)[C@@H](O[C@H]6O[C@H](CO)[C@@H](O[C@H]7O[C@H](COCc8ccc9ccccc9c8)[C@@H](O)[C@H](O)[C@H]7O)[C@H](O)[C@H]6O)[C@H](O)[C@H]5O)[C@H](O)[C@H]4O)[C@H](O)[C@H]3O)cccc12 | Active
CN(C)c1cccc2c(S(=O)(=O)NCCSCCCCCS[C@@H]3O[C@H](CO)[C@@H](O[C@H]4O[C@H](CO)[C@@H](O[C@H]5O[C@H](COCc6ccc7ccccc7c6)[C@@H](O)[C@H](O)[C@H]5O)[C@H](O)[C@H]4O)[C@H](O)[C@H]3O)cccc12 | inactive
CN(C)c1cccc2c(S(=O)(=O)NCCSCCCCCS[C@@H]3O[C@H](CO)[C@@H](O[C@H]4O[C@H](CO)[C@@H](O[C@H]5O[C@H](CO)[C@@H](O[C@H]6O[C@H](CO)[C@@H](O[C@H]7O[C@H](CO)[C@@H](O[C@H]8O[C@H](CO)[C@@H](O[C@H]9O[C@H](COCc%10ccc%11ccccc%11c%10)[C@@H](O)[C@H](O)[C@H]9O)[C@H](O)[C@H]8O)[C@H](O)[C@H]7O)[C@H](O)[C@H]6O)[C@H](O)[C@H]5O)[C@H](O)[C@H]4O)[C@H](O)[C@H]3O)cccc12 | Active
CN(C)c1cccc2c(S(=O)(=O)NCCSCCCCCS[C@@H]3O[C@H](CO)[C@@H](O[C@H]4O[C@H](CO)[C@@H](O[C@H]5O[C@H](CO)[C@@H](O[C@H]6O[C@H](COCc7ccc8ccccc8c7)[C@@H](O)[C@H](O)[C@H]6O)[C@H](O)[C@H]5O)[C@H](O)[C@H]4O)[C@H](O)[C@H]3O)cccc12 | Active
CN(C)c1cccc2c(S(=O)(=O)NCCSCCCCCS[C@@H]3O[C@H](CO)[C@@H](O[C@H]4O[C@H](COCc5ccc6ccccc6c5)[C@@H](O)[C@H](O)[C@H]4O)[C@H](O)[C@H]3O)cccc12 | inactive
CN(C)c1cccc2c(S(=O)(=O)NCCSCCCCCS[C@@H]3O[C@H](CO)[C@@H](O[C@H]4O[C@H](CO)[C@@H](O[C@H]5O[C@H](CO)[C@@H](O[C@H]6O[C@H](CO)[C@@H](O[C@H]7O[C@H](CO)[C@@H](O[C@H]8O[C@H](COCc9ccc%10ccccc%10c9)[C@@H](O)[C@H](O)[C@H]8O)[C@H](O)[C@H]7O)[C@H](O)[C@H]6O)[C@H](O)[C@H]5O)[C@H](O)[C@H]4O)[C@H](O)[C@H]3O)cccc12 | Active
